# Patent publication US20180296456A1, “Decapeptide-12 Modulation of Sirtuin Gene Expression in Epidermal Keratinocyte Progenitors” (Escape Therapeutics, Inc., priority 2017, published 2018)
# Assays:
# [1] = Trypan blue cell viability, 7 days, melanoblasts; type: cell-based; conditions: human, relative to control, read-out: melanoblast viability after 7 days
# Protocol: (§1) The effect of each of the decapeptides upon cell viability was also tested. In particular, cells were incubated with the decapeptide at various concentrations and then counted for viability relative to the control (untreated cells) using trypan blue. Cytotoxicity was measured according to the following formula:
# (§2) [1−(# of cells in control−# of live cells in test sample)/# of cells in control]×100 percent.
# [2] = tested on: SIRT4; assay: SIRT4 transcription, semi-quantitative RT-PCR in human epidermal progenitors; type: cell-based; conditions: 72 h
# Protocol: (§3) Human neonatal epidermal progenitors (Thermo Fisher Scientific, NY) were seeded in 6-well plates at a density of 2×10^5 cells/well. Each well received 2 ml of Epilife media containing 60 μM calcium chloride (Thermo Fisher Scientific, NY). Plates were incubated in a humidified chamber at 37 degrees Celsius and 5 percent CO2. Twenty-four hours later, cells were treated with various concentrations of oxyresveratrol or decapeptide-12 dissolved in PBS containing 5 percent DMSO. Control wells received vehicle only (5 percent DMSO and PBS). Final concentration of DMSO in each well was 0.05 percent.
# (§4) After a 72 hour incubation period, cells were trypsinized and total RNA extracted, using RNeasy kit (Qiagen, Valencia, Calif.) according to the manufacturer's protocol.
# (§5) RNA concentration was determined using nanodrop (Thermo fisher scientific, NY). Two μg of total RNA were used to synthesize cDNA using oligo dT primers and TaqMan reverse transcription reagents (Thermo fisher scientific, NY). The reaction was carried out in DNA Engine Peltier Thermal Cycler (Bio-Rad, Hercules, Calif.). The annealing temperature was 25 degrees Celsius for 10 minutes, followed by first strand synthesis at 48 degrees Celsius for 1 hour, and heat inactivation at 95 degrees Celsius for 5 minutes.
# (§6) The SIRT1-7 primers (table 1) were designed using Primer3. The semi-quantitative PCR reactions were performed on a DNA Engine Peltier Thermo Cycler (Bio-Rad, Hercules, Calif.). PCR was carried under the following conditions: denaturation at 94 degrees Celsius for 2 minutes and primer extension at 54 degrees Celsius for 30 seconds in 34 cycles for SIRT 1-7 and the housekeeping gene 18S.
# (§7) Samples were run and resolved on a 1.5 percent agarose gel containing 0.5 μg/ml of ethidium bromide and imaged using the FluorChem HD2 Imaging System (Protein simple, San Jose, Calif.). Densitometry analysis was carried out using the AlphaEase FC software (Protein simple, San Jose, Calif.). Intensity ratios were calculated as the intensity value for each gene divided by the intensity value of the internal control gene 18S.
# (§8) The effect of the decapeptides P4, P4A, P4B, and P4C upon the transcription levels of sirtuins 1-7 was evaluated. Table 4 summarizes transcription levels for all four decapeptides with the corresponding genes, at tested concentrations of: 10, 30, 50, 100, and 300 (all in μM).
# [3] = MTT cell proliferation assay, fibroblasts; type: cell-based, human; conditions: human, MTT, 72 h, read-out: fibroblast proliferation rate after 72 hours
# Protocol: (§9) Proliferation rates for three human cell lines (epidermal progenitors, melanoblasts, and fibroblasts) were determined using a TACS® MTT Cell Proliferation Kit. Cells were seeded at 2.5×10^4/well in 96-well plates in a humidified atmosphere with 5 percent CO2 at 37 degrees Celsius. Twenty-four hours later, the decapeptides were added to the corresponding wells at varying concentrations and incubated for 72 hours. The remainder of the procedure was performed following the manufacturer's protocol.
# [4] = tested on: SIRT6; assay: SIRT6 transcription, semi-quantitative RT-PCR in human epidermal progenitors; type: cell-based; conditions: 72 h
# Protocol: as §3, §4, §5, §6, §7, §8
# [5] = MTT cell proliferation assay, melanoblasts; type: cell-based, human; conditions: human, MTT, 72 h, read-out: melanoblast proliferation rate after 72 hours
# Protocol: as §9
# [6] = tested on: SIRT3; assay: SIRT3 transcription, semi-quantitative RT-PCR in human epidermal progenitors; type: cell-based; conditions: 72 h
# Protocol: as §3, §4, §5, §6, §7, §8
# [7] = tested on: SIRT1; assay: SIRT1 transcription, semi-quantitative RT-PCR in human epidermal progenitors; type: cell-based; conditions: 72 h
# Protocol: as §3, §4, §5, §6, §7, §8
# [8] = Trypan blue cell viability, 7 days, fibroblasts; type: cell-based; conditions: human, relative to control, read-out: fibroblast viability after 7 days
# Protocol: as §1, §2
# [9] = tested on: SIRT5; assay: SIRT5 transcription, semi-quantitative RT-PCR in human epidermal progenitors; type: cell-based; conditions: 72 h
# Protocol: as §3, §4, §5, §6, §7, §8
# [10] = tested on: SIRT7; assay: SIRT7 transcription, semi-quantitative RT-PCR in human epidermal progenitors; type: cell-based; conditions: 72 h
# Protocol: as §3, §4, §5, §6, §7, §8
substance,measurement,setting,value
"Ac-YRSRKYSSWY-NH2 [P4C, Acetyl-YRSRKYSSWY-amide]","viability at 168 h, 3 µM",[1]; 3 μM,100%
same,"viability at 168 h, 10 µM",[1]; 10 μM,99 ± 1%
same,"viability at 168 h, 30 µM",[1]; 30 μM,98.4 ± 1%
same,"viability at 168 h, 50 µM",[1]; 50 μM,97.9 ± 1%
same,"viability at 168 h, 100 µM",[1]; 100 μM,97 ± 2%
same,"viability at 168 h, 300 µM",[1]; 300 μM,96 ± 3%
same,"viability at 168 h, 500 µM",[1]; 500 μM,95.5 ± 3%
same,"viability at 168 h, 1000 µM",[1]; 1000 μM,94.8 ± 3%
same,SIRT4 transcription increase relative to control,[2]; 10 μM,3 ± 1%
same,SIRT4 transcription increase relative to control,[2]; 30 μM,3 ± 1%
same,SIRT4 transcription increase relative to control,[2]; 50 μM,11 ± 6%
same,SIRT4 transcription increase relative to control,[2]; 100 μM,32 ± 9%
same,SIRT4 transcription increase relative to control,[2]; 300 μM,67 ± 9%
same,"viability at 72 h, 3 µM",[3]; 3 μM,100%
same,"viability at 72 h, 10 µM",[3]; 10 μM,99 ± 1%
same,"viability at 72 h, 30 µM",[3]; 30 μM,99 ± 1%
same,"viability at 72 h, 50 µM",[3]; 50 μM,99 ± 1%
same,"viability at 72 h, 100 µM",[3]; 100 μM,98 ± 2%
same,"viability at 72 h, 300 µM",[3]; 300 μM,97 ± 2%
same,"viability at 72 h, 500 µM",[3]; 500 μM,96 ± 2%
same,"viability at 72 h, 1000 µM",[3]; 1000 μM,96 ± 2%
same,SIRT6 transcription increase relative to control,[4]; 10 μM,12 ± 3%
same,SIRT6 transcription increase relative to control,[4]; 30 μM,9 ± 4%
same,SIRT6 transcription increase relative to control,[4]; 50 μM,31 ± 5%
same,SIRT6 transcription increase relative to control,[4]; 100 μM,124 ± 7%
same,SIRT6 transcription increase relative to control,[4]; 300 μM,87 ± 3%
same,"viability at 72 h, 3 µM",[5]; 3 μM,100%
same,"viability at 72 h, 10 µM",[5]; 10 μM,100%
same,"viability at 72 h, 30 µM",[5]; 30 μM,99 ± 1%
same,"viability at 72 h, 50 µM",[5]; 50 μM,98 ± 1%
same,"viability at 72 h, 100 µM",[5]; 100 μM,97 ± 2%
same,"viability at 72 h, 300 µM",[5]; 300 μM,96 ± 3%
same,"viability at 72 h, 500 µM",[5]; 500 μM,95 ± 2%
same,"viability at 72 h, 1000 µM",[5]; 1000 μM,95 ± 2%
same,SIRT3 transcription increase relative to control,[6]; 10 μM,8 ± 3%
same,SIRT3 transcription increase relative to control,[6]; 30 μM,6 ± 2%
same,SIRT3 transcription increase relative to control,[6]; 50 μM,45 ± 9%
same,SIRT3 transcription increase relative to control,[6]; 100 μM,82 ± 8%
same,SIRT3 transcription increase relative to control,[6]; 300 μM,159 ± 6%
same,SIRT1 transcription increase relative to control,[7]; 10 μM,7 ± 3%
same,SIRT1 transcription increase relative to control,[7]; 30 μM,5.00%
same,SIRT1 transcription increase relative to control,[7]; 50 μM,1.00%
same,SIRT1 transcription increase relative to control,[7]; 100 μM,137 ± 8%
same,SIRT1 transcription increase relative to control,[7]; 300 μM,190 ± 9%
same,"viability at 168 h, 3 µM",[8]; 3 μM,100%
same,"viability at 168 h, 10 µM",[8]; 10 μM,98.9 ± 1%
same,"viability at 168 h, 30 µM",[8]; 30 μM,98.3 ± 1%
same,"viability at 168 h, 50 µM",[8]; 50 μM,97.8 ± 1%
same,"viability at 168 h, 100 µM",[8]; 100 μM,97.4 ± 2%
same,"viability at 168 h, 300 µM",[8]; 300 μM,96.5 ± 2%
same,"viability at 168 h, 500 µM",[8]; 500 μM,95.7 ± 2%
same,"viability at 168 h, 1000 µM",[8]; 1000 μM,94.9 ± 3%
same,SIRT5 transcription increase relative to control,[9]; 10 μM,4 ± 1%
same,SIRT5 transcription increase relative to control,[9]; 30 μM,2 ± 1%
same,SIRT5 transcription increase relative to control,[9]; 50 μM,3 ± 1%
same,SIRT5 transcription increase relative to control,[9]; 100 μM,35 ± 2%
same,SIRT5 transcription increase relative to control,[9]; 300 μM,28 ± 9%
same,SIRT7 transcription increase relative to control,[10]; 10 μM,14 ± 5%
same,SIRT7 transcription increase relative to control,[10]; 30 μM,7 ± 2%
same,SIRT7 transcription increase relative to control,[10]; 50 μM,46 ± 5%
same,SIRT7 transcription increase relative to control,[10]; 100 μM,80 ± 11%
same,SIRT7 transcription increase relative to control,[10]; 300 μM,130 ± 9%
